The source made the active and inactive calls.

Broadly, the Tmax is the time from dosing to the highest level. The term AUC(0-inf) denotes total exposure, with the tail of the curve extrapolated. Read a high AUC(0-inf) as high exposure. For orientation: IC50 means the concentration needed to halve the response being measured. A higher IC50 goes with weaker potency. A word on the clearance: it is the volume of plasma or blood freed of the substance per unit of time. Read a low clearance as a low capacity for elimination. As usually defined, the bioavailability is the share of a dose that reaches the circulation, judged against a reference dose that is usually intravenous. A word on the half-life: it is the time needed for the level to fall by half in the phase considered. A high value points to slow decline. One may read the Cmax as the highest concentration seen after dosing. By AUC is commonly meant the area under the concentration-time curve, a measure of exposure. A high value points to more exposure.

The nature of series [1]: Tmax in mouse at 10 mg/kg, ip. The class given is ADME, organism-based. The following applies: in vivo.
Series [2] deals with Mus musculus. The series can be described thus: Bioavailability in mouse at 10 mg/kg, ip. Format: ADME, organism-based. The following applies: in vivo.
A short description of series [3]: AUC(infinity) in mouse at 10 mg/kg, po. The following applies: in vivo. Format: ADME, organism-based. Further details: dose 10 mg/kg, route oral, time infinity.
Series [4] concerns the target T1, Pancreatic triacylglycerol lipase (Sus scrofa) (UniProt P00591).
T1 sequence (whole entry): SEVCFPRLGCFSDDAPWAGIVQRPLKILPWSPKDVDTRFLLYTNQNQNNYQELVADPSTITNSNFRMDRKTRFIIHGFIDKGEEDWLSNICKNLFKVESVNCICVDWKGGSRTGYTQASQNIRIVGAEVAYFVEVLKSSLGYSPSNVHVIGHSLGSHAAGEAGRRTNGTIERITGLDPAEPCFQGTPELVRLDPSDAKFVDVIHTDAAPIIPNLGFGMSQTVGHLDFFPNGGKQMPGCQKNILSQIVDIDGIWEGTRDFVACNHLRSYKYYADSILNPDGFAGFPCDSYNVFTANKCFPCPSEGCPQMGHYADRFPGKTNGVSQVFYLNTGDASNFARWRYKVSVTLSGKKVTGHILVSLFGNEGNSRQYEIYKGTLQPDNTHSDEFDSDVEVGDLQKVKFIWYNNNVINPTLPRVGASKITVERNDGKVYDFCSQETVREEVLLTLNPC
The series can be described thus: Inhibition of porcine pancreatic lipase at 30 uM.

Series [5] can be described thus: Tmax in mouse at 10 mg/kg, po. The conditions noted are these: in vivo. Format: ADME, organism-based.
Series [6] has as its target T2, Diacylglycerol lipase-beta (Homo sapiens, UniProt Q8NCG7).
T2 sequence (Q8NCG7 whole entry): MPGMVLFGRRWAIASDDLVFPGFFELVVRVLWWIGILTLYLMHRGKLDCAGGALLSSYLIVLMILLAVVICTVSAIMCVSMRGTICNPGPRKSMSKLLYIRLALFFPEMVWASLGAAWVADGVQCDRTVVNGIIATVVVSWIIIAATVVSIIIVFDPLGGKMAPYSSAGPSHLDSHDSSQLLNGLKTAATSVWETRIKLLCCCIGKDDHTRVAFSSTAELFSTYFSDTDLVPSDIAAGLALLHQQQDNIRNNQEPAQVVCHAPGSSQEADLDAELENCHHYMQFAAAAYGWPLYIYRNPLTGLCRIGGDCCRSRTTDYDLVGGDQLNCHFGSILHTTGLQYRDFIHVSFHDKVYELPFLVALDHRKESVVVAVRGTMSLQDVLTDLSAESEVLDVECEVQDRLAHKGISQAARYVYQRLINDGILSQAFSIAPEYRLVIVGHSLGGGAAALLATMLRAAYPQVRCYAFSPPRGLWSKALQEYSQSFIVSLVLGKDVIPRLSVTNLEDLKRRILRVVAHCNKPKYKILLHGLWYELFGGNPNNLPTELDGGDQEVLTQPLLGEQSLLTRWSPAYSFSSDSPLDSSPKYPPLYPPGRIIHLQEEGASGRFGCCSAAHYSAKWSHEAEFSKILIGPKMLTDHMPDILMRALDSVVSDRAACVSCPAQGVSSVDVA
Briefly: Inhibition of DAGLbeta (unknown origin).

Series [7] in a line: Clearance in mouse at 1 mg/kg, iv. Format: ADME, organism-based. The conditions noted are these: in vivo.
Series [8] in a line: Oral bioavailability in mouse at 10 mg/kg. The class given is ADME, organism-based. The following applies: in vivo.
The nature of series [9]: Half life in mouse at 1 mg/kg, iv. The following applies: in vivo. Format: ADME, organism-based.
Series [10] in a line: Cmax in mouse at 10 mg/kg, po. Further details: dose 10 mg/kg, route oral. Format: ADME, organism-based. The conditions noted are these: in vivo.
The nature of series [11]: Half life in mouse at 10 mg/kg, po. The class given is ADME, organism-based. The conditions noted are these: in vivo.
The nature of series [12]: Metabolic stability in mouse liver microsomes assessed as residual compound at 3 uM preincubated for 2 mins followed by NADPH addition measured after 10 mins by LC-MS analysis. The conditions noted are these: read-out: Stability. The class given is ADME. For orientation: Liver microsomes are a subcellular fraction often used to study metabolism.
Series [13] concerns Mus musculus. Briefly: AUC(infinity) in mouse at 1 mg/kg, iv. The class given is ADME, organism-based. Further details: dose 1 mg/kg, route intravenous, time infinity. The conditions noted are these: in vivo.
A short description of series [14]: Cmax in mouse at 10 mg/kg, ip. The class given is ADME, organism-based. Further details: dose 10 mg/kg, route intraperitoneal. The conditions noted are these: in vivo.
Series [15] is described as follows: Volume of distribution at steady state in mouse at 1 mg/kg, iv. Format: ADME, organism-based. The following applies: in vivo, read-out: Vdss.
A short description of series [16]: Metabolic stability in rat liver microsomes assessed as residual compound at 3 uM preincubated for 2 mins followed by NADPH addition measured after 10 mins by LC-MS analysis. The following applies: read-out: Stability. The class given is ADME.
For series [17], the target named is T3, Nuclear receptor subfamily 1 group I member 2 (Homo sapiens, UniProt O75469).
T3 sequence (O75469 whole entry): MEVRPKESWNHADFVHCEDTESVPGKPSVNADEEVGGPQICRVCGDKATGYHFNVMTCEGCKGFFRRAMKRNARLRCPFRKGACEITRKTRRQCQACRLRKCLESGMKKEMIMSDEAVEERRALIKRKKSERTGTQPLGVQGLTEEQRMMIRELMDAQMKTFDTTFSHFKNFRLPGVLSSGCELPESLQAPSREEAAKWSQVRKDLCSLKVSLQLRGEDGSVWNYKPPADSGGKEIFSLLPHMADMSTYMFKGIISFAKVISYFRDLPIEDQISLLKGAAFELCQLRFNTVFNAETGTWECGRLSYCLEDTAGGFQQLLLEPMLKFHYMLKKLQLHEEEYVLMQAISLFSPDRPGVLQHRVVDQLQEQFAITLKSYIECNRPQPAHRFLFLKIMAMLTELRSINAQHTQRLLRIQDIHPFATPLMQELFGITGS
Briefly: Transactivation of human PXR expressed in human HepG2 cells after […] by luciferase reporter gene assay. Format: ADME, cell-based. (Reporter assays use an easily measured gene product as a stand-in for the process of interest.)

The subject of series [18] is Mus musculus. Briefly: AUC(infinity) in mouse at 10 mg/kg, ip. Further details: dose 10 mg/kg, time infinity, route intraperitoneal. The following applies: in vivo. The class given is ADME, organism-based.
Series [19] can be described thus: Cmax in mouse at 1 mg/kg, iv. The class given is ADME, organism-based. Further details: dose 1 mg/kg, route intravenous. The conditions noted are these: in vivo.
For series [20], the target named is T4, Monoglyceride lipase (Homo sapiens) (UniProt Q99685).
T4 sequence (whole entry): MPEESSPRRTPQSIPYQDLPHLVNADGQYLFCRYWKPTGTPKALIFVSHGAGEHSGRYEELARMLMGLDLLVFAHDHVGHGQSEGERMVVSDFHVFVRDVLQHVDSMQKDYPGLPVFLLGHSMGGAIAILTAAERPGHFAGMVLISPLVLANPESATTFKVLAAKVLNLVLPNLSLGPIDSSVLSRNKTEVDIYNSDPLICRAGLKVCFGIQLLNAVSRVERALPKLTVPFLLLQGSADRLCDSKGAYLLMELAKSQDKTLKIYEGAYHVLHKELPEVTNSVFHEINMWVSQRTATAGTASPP
The series can be described thus: Inhibition of MAGL (unknown origin) at 30 uM.

Series [21] can be described thus: Half life in mouse at 10 mg/kg, ip. Format: ADME, organism-based. The following applies: in vivo.
Series [22] in a line: Metabolic stability in human liver microsomes assessed as residual compound at 3 uM preincubated for 2 mins followed by NADPH addition measured after 10 mins by LC-MS analysis. Format: ADME. The following applies: read-out: Stability.

For `CC1(C)CCc2cc(S(=O)(=O)N(CC(=O)O)C3(c4cccc(-c5cc(Cl)cc(Cl)c5)c4)CCC3)ccc2O1`, the results for the Tmax in [1] and in series [5] were 37.8 min and 30 min, respectively. Further, the F with Mus musculus [2] is listed as 100%. In series [3], this compound had an AUC(0-inf) of 1.52 µM·h. Also, the inhibition entry in series [4] and in series [20] was “inactive” throughout. This compound also gave an IC50 in series [6] of 40 nM. For the same compound, in series [7], the clearance came out at 169 mL/min/kg. The bioavailability in [8] amounted to 88%. In addition, the half-life was 34.8 min in series [9], 59.4 min in series [11] and 79.8 min in [21]. The figures for the Cmax in [10], in series [14] and in series [19] were 941 nM, 2860 nM and 274 nM, respectively. The remaining at 10 min, 3 µM in series [12] worked out at 77%; in [16], 70%; in series [22] it was 79%. The AUC was determined as 173 nM·h in the series on Mus musculus [13] and 5.784 µM·h with Mus musculus [18]. Further, the Vd in series [15] was determined as 7.42 L/kg. Besides, the Activity in [17] is recorded as 140%.

Source of the values: ChEMBL document CHEMBL3763072, “Structure activity relationship studies on chemically non-reactive glycine sulfonamide inhibitors of diacylglycerol lipase” (Bioorg Med Chem, 2016).
